A short description of data set [1]: Whole blood stability, mouse. It is filed as in vitro ADME. The source says: (§1) The results of the assay on stability in blood and IC50 values for pancreatic cancer cell line KP4 are given below in Table 24.
A further data set has as its system AsPC-1. Put plainly: Cell viability assay (CellTiter Glo), pancreatic adenocarcinoma AsPC-1. It is filed as cell-based. As to conditions: Homo sapiens, ASPC1; pancreatic adenocarcinoma, ascites, 96 hours, CellTiter Glo; read-out: IC50 AsPC-1. As for the experimental part:
(§2) Cell viability assay was performed to assess the potency of the compounds in human cancer cell lines KP4 (pancreatic ductal adenocarcinoma), MiaPaCa-2 (pancreatic carcinoma), AsPC-1 (pancreatic adenocarcinoma, ascites), 143B (osteosarcoma), and SJSA-1 (osteosarcoma). Selected compounds were also assayed in a human breast epithelial cell line MCF-10A, a nontumorigenic cell line as a control to assess differential activity. Cells at a density of 500-5,000 cells/well were seeded in 96-well plates and incubated at 37° C. overnight. A series of 9 different concentrations of compound stocks (500×) were created by 3-fold serial dilution in DMSO. These compounds were further diluted in culture media and then added to cells so that the final DMSO concentration was equal to 0.25% or less. After 96 hours of incubation, 50 μL of CellTiter Glo reagent (Promega) was added to each well and luminescence was measured after 10 minutes using EnVision (PerkinElmer). Compounds titrated from top concentration of up to 30 μM. The select compounds were tested initially from 30 μM as the top concentration in duplicates (range of 4.6 nM-30 μM). […] Luminescence from cells treated with DMSO alone was set as Max and % of inhibition was calculated as follows: Inhibition %=(Max-Sample value)/Max*100. Data was analyzed using XL-fit software (ID Business Solutions Ltd.). IC50, relative IC50, or % of top inhibition was calculated.
(§3) The results of the assay in the pancreatic cell lines are given in Table 15a for PANC1, Table 15b for MiaPaCa-2, and Table 15c for AsPC-1.

A short description of data set [2]: Whole blood stability, human. It is filed as in vitro ADME.
From the text: as §1

The test system of a further data set is KP4. Kind of data set: Cell viability assay (CellTiter Glo), pancreatic ductal adenocarcinoma KP4. It is filed as cell-based, human. The note with it: Homo sapiens, KP-4, 96 h, pancreatic cancer cell line KP4, 96 hours, CellTiter Glo; read-out: IC50 μM KP4. The method in brief:
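KP4 cells seeded at 1,000–10,000 per well, treated 96 h with 9-point 3-fold dilutions from 30 μM top (4.6 nM–30 μM, duplicates; ≤0.25% DMSO). Viability by CellTiter Glo luminescence; % inhibition relative to DMSO-only wells, giving IC50, relative IC50 or % top inhibition.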

The next data set relates to MCF-10A. Put plainly: Cell viability assay (CellTiter Glo), non-tumorigenic breast epithelial cell line MCF-10A. It is filed as cell-based. The note with it: Homo sapiens, 96 hours. The procedure:
as §2
Paclitaxel was used as the positive control for cytotoxicity.
For orientation: ATP-based viability assays read luminescence as a measure of living cells.

Data set [3] relates to SJSA-1. Kind of data set: Cell proliferation (Alamar Blue) assay, SJSA-1 osteosarcoma, with/without ferrostatin. It is filed as cell-based, human. The note with it: Homo sapiens; for IC50: SJSA-1, 24 h, Alamar Blue, 24 h. The method in brief:
(§4)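 Cells seeded at 5000/well, 16-24 h, then exposed 24 h at 37° C to compound, 10-0.0005 μM in 3-fold dilutions, 1% DMSO final. Alamar Blue fluorescence (ex 540/em 590 nm) read after 1.5 h; IC50 from variable-slope sigmoidal fit.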

A further data set deals with 786-O. Put plainly: Cell proliferation (Alamar Blue) assay, 786-O renal cell carcinoma, with/without ferrostatin. Format: cell-based. As to conditions: Homo sapiens; for IC50: 786-0, 24 h, Alamar Blue, 24 h. The method in brief:
as §4
In general terms: The colour change of resazurin is a common sign of viable cells or microbes.

Data set [4] is described as follows: PK profile, IV plasma concentration and PK parameters. It is filed as in vivo. The note with it: Balb/C nude, mouse, iv, 5 mg/kg, 30% Kolliphore EL with 1% poloxamar 407 in water. As for the experimental part:
The PK profiles of compounds 148, 149, 150, 156 and 169 are shown below. Compound 156 was formulated in 30% Kolliphor EL (Cremophor EL) in water and compounds 148, 149, 150 and 169 were formulated in 30% Kolliphore EL with 1% poloxamar 407 in water. All compounds were dosed at 5 mg/kg. Blood samples were collected at various time points and analyzed using the method described above.

For another data set, the system named is A431. Put plainly: Cell proliferation (Alamar Blue) assay, A431. It is filed as cell-based. As to conditions: Homo sapiens, A-431; Cell Line A431.
Data set [5] relates to SJSA-1. Kind of data set: Cell viability assay (CellTiter Glo), osteosarcoma SJSA-1. The note with it: Homo sapiens, 96 hours. Format: cell-based. As for the experimental part: as §2
The results of the assay in sarcoma cell lines are given in Table 21a for HT-1080 luc2 (fibrosarcoma expressing a luciferase gene), Table 21b for 143B (osteosarcoma), and Table 21c for SJSA-1 (osteosarcoma).

The next data set relates to MiaPaCa-2. Kind of data set: Cell viability assay (CellTiter Glo), pancreatic carcinoma MiaPaCa-2. It is filed as cell-based. The note with it: Homo sapiens, MIA PaCa-2; pancreatic carcinoma, 96 hours, CellTiter Glo; read-out: IC50 MiaPaCa-2. The procedure: as §2, §3

We go through 19 compounds from patent publication US11098040B2, “Compounds and methods of use” (Ferro Therapeutics, Inc., priority 2018, dated 2021).

What is called pIC50 is −log10 of the IC50, conventionally taken in molar units. For orientation: IC50 means the midpoint of a concentration-inhibition curve. Usually Cmax stands for the peak of the concentration-time curve. What is called clearance is a measure of how efficiently the substance is removed, as volume per time. Higher therefore signals a high capacity for elimination. The half-life is the time in which the quantity being followed falls by half. Read a low half-life as rapid decline.

pIC50: −log10 of the molar value. Read-outs that look alike come from different tables or passages of the source.

For the compound `[2H]C([2H])(Cl)C(=O)N1[C@@H](c2ccc(C(=O)OC(C)(C)C)cc2)c2[nH]c3ccccc3c2C[C@@H]1C(=O)OC` [BZ], the “Whole Blood Stability % Remaining at 37° C. Mouse” value is given as 100.0% in data set [1] (0 min), 65.4% in [1] (30 min) and 30.7% in data set [1] (60 min). In addition, the pIC50 with AsPC-1 is 7.52; with MCF-10A, 6.23. The “Whole Blood Stability % Remaining at 37° C. Human” value in [2] (0 min) was determined as 100.0%; in [2] (30 min), 73.5%; in data set [2] (60 min), 40.8%. In the data set with KP4, the IC50 was less than 0.01 µM.
Regarding `[2H]C([2H])([2H])OC(=O)[C@H]1Cc2c([nH]c3ccccc23)[C@H](c2ccc(C(=O)OC(C)(C)C)cc2)N1C(=O)CCl` [CA], the “Whole Blood Stability % Remaining at 37° C. Mouse” value stood at 100.0% in [1] (0 min), 80.8% in [1] (30 min) and 33.2% in [1] (60 min). In addition, the pIC50 was 7.64 with AsPC-1 and 6.33 in the data set with MCF-10A. Also, the “Whole Blood Stability % Remaining at 37° C. Human” value in data set [2] (0 min) is listed as 100.0%; in data set [2] (30 min), 86.9%; in data set [2] (60 min), 48.9%. In addition, the IC50 with KP4 was less than 0.01 µM.
As for `[2H]C([2H])([2H])OC(=O)[C@H]1Cc2c([nH]c3ccccc23)[C@H](c2ccc(C(=O)OC)cc2)N1C(=O)CCl` [CC], the “Whole Blood Stability % Remaining at 37° C. Mouse” value in data set [1] (0 min) is 100.0%; in [1] (30 min), 0.0%; in [1] (60 min), 0.0%. The pIC50 is 6.93 in the data set with AsPC-1 and 5.77 with MCF-10A. Besides, the “Whole Blood Stability % Remaining at 37° C. Human” value is reported as 100.0% in data set [2] (0 min), 63.8% in [2] (30 min) and 33.5% in data set [2] (60 min). Moreover, in the data set with KP4, the IC50 was less than 0.01 µM.
Turning to `COC(=O)[C@H]1Cc2c([nH]c3ccccc23)[C@H](c2ccc(C(=O)OCC34CC(F)(C3)C4)cc2)N1C(=O)CCl` [Compound 76], the values for the pIC50 in the data set on AsPC-1 and with MCF-10A were 7.46 and 5.95, respectively.
In the case of `CCCC[C@H]1Cc2c([nH]c3ccccc23)[C@H](c2ccc(S(=O)(=O)NC3CC3)cc2F)N1C(=O)CCl` [Compound 169, 4-((1S,3S)-3-butyl-2-(2-chloroacetyl)-2,3,4,9-tetrahydro-1H-pyrido[3,4-b]indol-1-yl)-N-cyclopropyl-3-fluorobenzenesulfonamide], the IC50 with SJSA-1 [3] (2 μM ferrostatin, read-out: SJSA-1 (IC50, μM) 2 μM Ferrostatin) is more than 10 µM; with SJSA-1 [3] (without ferrostatin, read-out: SJSA-1 (IC50, μM) Without Ferrostatin), 0.001 µM; in the data set on 786-O (2 μM ferrostatin, read-out: 786-O (IC50, μM) 2 μM Ferrostatin), 4.96 µM; with 786-O (without ferrostatin, read-out: 786-O (IC50, μM) Without Ferrostatin) it was 0.003 µM. For the same compound, the pIC50 in the data set with SJSA-1 [3] (SJSA-1, Cell Line SJSA-1, read-out: IC50) is 9.00; with 786-O (786-0, Cell Line 786-O, read-out: IC50) it was 8.52; in the data set with A431, 5.41. This compound returned a C0 in data set [4] of 5380 ng/mL. Further, the highest level in [4] (Cmax) was 2220 ng/mL. The clearance in [4] is 109 mL/min/kg. Further, the AUC(0-t) in [4] (read-out: AUC0-t) was found to be 760 ng·h/mL. Besides, the AUC(0-inf) in data set [4] (read-out: AUC0-∞) worked out at 762 ng·h/mL. Moreover, the Vd was determined as 2.39 L/kg in data set [4] (read-out: Vd) and 0.98 L/kg in data set [4] (read-out: Vss). The same compound gave a half-life in data set [4] (time points considered 0.25-2 h (1 h excluded)) of 15 min.
With `COC(=O)[C@H]1Cc2c([nH]c3ccccc23)[C@H](c2ccc(C(=O)N3CCOCC3)cc2)N1C(=O)CCl` [Example 26], the pIC50 in the data set on SJSA-1 [5] is 6.47; with MiaPaCa-2 it was 7.28; in the data set on MCF-10A it was 5.40.
For `COC(=O)[C@H]1Cc2c([nH]c3ccccc23)[C@H](c2ccc(C(=O)NCCN3CCOCC3)cc2)N1C(=O)CCl` [Example 27] the same measures were 5.85, 6.33 and 5.03.
On the same counts, the results for `COC(=O)[C@H]1Cc2c([nH]c3ccccc23)[C@H](c2ccc(S(=O)(=O)N3CCC(O)CC3)cc2)N1C(=O)CCl` [Example 35] are 6.50, 6.93 and 5.38.
For `COC(=O)[C@H]1Cc2c([nH]c3ccccc23)[C@H](c2ccc(S(=O)(=O)N3CC(O)C3)cc2)N1C(=O)CCl` [Example 37] the same measures were 6.20, 6.55 and 5.26.
For the compound `C=CCOC(=O)c1ccc([C@H]2c3[nH]c4ccccc4c3C[C@H](C(=O)OC)N2C(=O)CCl)cc1` [Example 74], the pIC50 was 6.97 in the data set on AsPC-1 and 5.18 in the data set on MCF-10A.
For the compound `COC(=O)[C@H]1Cc2c([nH]c3ccccc23)[C@H](c2ccc(C(=O)OCC3CC3)cc2)N1C(=O)CCl` [Example 75], the pIC50 in the data set with AsPC-1 is 7.55; in the data set on MCF-10A, 5.89.
On the same counts, the results for `COC(=O)c1ccc([C@H]2c3[nH]c4ccccc4c3C[C@H](C)N2C(=O)CCl)cc1` [Example 77] are 7.13 and 6.05.
For `COC(=O)[C@H]1Cc2c([nH]c3ccccc23)[C@H](c2ccc(C(=O)NCC3CC3)cc2)N1C(=O)CCl` [Example 81] the same measures were 7.14 and 5.58.
For `COC(=O)[C@H]1Cc2c([nH]c3ccccc23)[C@H](c2ccc(S(=O)(=O)NCC3CC3)cc2)N1C(=O)CCl` [Example 82] the same measures were 7.21 and 5.43.
For `COC(=O)[C@H]1Cc2c([nH]c3ccccc23)[C@H](c2ccc(C(=O)OCC3CCC3)cc2)N1C(=O)CCl` [Example 85], the pIC50 in the data set on AsPC-1 was 7.54; in the data set with MCF-10A, 6.30.
On the same counts, the results for `COC(=O)[C@H]1Cc2c([nH]c3ccccc23)[C@H](c2ccc(C(=O)OCC3CCCC3)cc2)N1C(=O)CCl` [Example 86] are 7.68 and 6.48.
Consider `COC(=O)[C@H]1Cc2c([nH]c3ccc(Br)cc23)[C@H](c2ccc(C(=O)OCC3CC3)cc2)N1C(=O)CCl` [Example 87], for which the pIC50 was 7.66 in the data set on AsPC-1 and 6.34 in the data set on MCF-10A.
For `COC(=O)c1ccc([C@H]2c3[nH]c4ccc(Br)cc4c3C[C@H](C(=O)OC)N2C(=O)CCl)cc1` [Example 88] the same measures were 7.52 and 6.34.
For `[2H]C([2H])(Cl)C(=O)N1[C@@H](c2ccc(C(=O)OC)cc2)c2[nH]c3ccccc3c2C[C@@H]1C(=O)OC` [Example 90] the same measures were 6.88 and 5.83.
